The values that follow come from article PMC6934871, “High resolution structural and functional analysis of a hemopexin motif protein from Dolichos” (Scientific Reports, 2019).

Molecules are shown by their SMILES. pKd: −log10 of the molar value.

The target of this assay is DC25. Kind of assay: SPR (Biacore T200, DC25 immobilized on CM5, […] Langmuir fit); also inhibits peroxidase activity of purified DC25. It is filed as binding, Lablab purpureus.

Broadly, the pKd is the negative decadic logarithm of the Kd, by convention in mol/L. Lower therefore signals a large Kd. `O=S(=O)(O)c1ccc(-c2c3nc(c(-c4ccc(S(=O)(=O)O)cc4)c4ccc([nH]4)c(-c4ccc(S(=O)(=O)O)cc4)c4nc(c(-c5ccc(S(=O)(=O)O)cc5)c5ccc2[nH]5)C=C4)C=C3)cc1` [TPPS4] had a pKd of 5.92.
